According to ChEMBL document CHEMBL1909046, “DrugMatrix in vitro pharmacology data”:

Assays:
[1] = DRUGMATRIX: GABAA, Muscimol, Central radioligand binding (ligand: [3H] Muscimol); type: cell membranes, Rattus norvegicus, Wistar, Brain, Membrane; conditions: Not Active = under 50% inhibition at 10 µM
[2] = target: T1, Amine oxidase [flavin-containing] A (Homo sapiens, UniProt P21397); test: DRUGMATRIX: Monoamine Oxidase MAO-A enzyme inhibition (substrate: Kynuramine); design: species or system BTI-TN-5B1-4; conditions: bti-tn-5b1-4; Not Active = under 50% inhibition at 10 µM
T1 sequence (P21397 whole entry): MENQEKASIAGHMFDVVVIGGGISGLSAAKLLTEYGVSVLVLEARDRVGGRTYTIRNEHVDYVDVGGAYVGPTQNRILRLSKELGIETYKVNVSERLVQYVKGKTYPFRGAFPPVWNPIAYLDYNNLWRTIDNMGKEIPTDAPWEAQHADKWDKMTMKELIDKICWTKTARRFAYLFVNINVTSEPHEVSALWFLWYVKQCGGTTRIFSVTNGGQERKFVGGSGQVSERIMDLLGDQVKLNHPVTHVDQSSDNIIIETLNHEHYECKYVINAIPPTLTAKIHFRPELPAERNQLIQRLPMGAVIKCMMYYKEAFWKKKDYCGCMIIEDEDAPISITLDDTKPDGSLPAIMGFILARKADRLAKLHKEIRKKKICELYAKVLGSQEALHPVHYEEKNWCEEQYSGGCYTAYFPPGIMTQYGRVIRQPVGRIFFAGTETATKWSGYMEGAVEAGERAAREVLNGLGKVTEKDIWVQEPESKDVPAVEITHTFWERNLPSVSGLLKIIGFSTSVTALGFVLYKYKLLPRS

[3] = DRUGMATRIX: Glutamate, AMPA radioligand binding (ligand: [3H] AMPA); type: cell membranes, Rattus norvegicus, Wistar, Cerebral cortex, Membrane; conditions: Not Active = under 50% inhibition at 10 µM
[4] = DRUGMATRIX: Imidazoline I2, Central radioligand binding (ligand: [3H] Idazoxan); type: cell membranes, Rattus norvegicus, Wistar, Cerebral cortex, Membrane; conditions: Not Active = under 50% inhibition at 10 µM
[5] = DRUGMATRIX: Phorbol Ester radioligand binding (ligand: [3H] PDBu); type: cell membranes, Mus musculus, ICR, Brain, Membrane; conditions: Not Active = under 50% inhibition at 10 µM
D(1A) dopamine receptor = D(1A) dopamine receptor (Homo sapiens, UniProt P21728); test: DRUGMATRIX: Dopamine D1 radioligand binding (ligand: [3H] SCH-23390); type: cell membranes, CHO, Membrane; conditions: cho; Not Active = under 50% inhibition at 10 µM
Sequence of D(1A) dopamine receptor (P21728 whole entry): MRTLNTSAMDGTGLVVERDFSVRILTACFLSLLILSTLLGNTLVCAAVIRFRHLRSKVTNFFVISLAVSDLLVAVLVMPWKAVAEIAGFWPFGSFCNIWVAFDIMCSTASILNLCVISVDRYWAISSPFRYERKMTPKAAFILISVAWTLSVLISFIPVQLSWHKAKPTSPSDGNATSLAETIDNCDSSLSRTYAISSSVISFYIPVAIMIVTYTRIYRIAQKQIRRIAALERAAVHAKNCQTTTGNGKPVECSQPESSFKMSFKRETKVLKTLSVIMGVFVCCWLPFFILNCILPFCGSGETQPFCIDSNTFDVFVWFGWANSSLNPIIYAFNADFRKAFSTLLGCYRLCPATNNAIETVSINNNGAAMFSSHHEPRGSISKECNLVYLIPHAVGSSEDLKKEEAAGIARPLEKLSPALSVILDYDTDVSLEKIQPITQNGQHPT

[6] = target: Mitogen-activated protein kinase 3 (Homo sapiens, UniProt P27361); test: DRUGMATRIX: Protein Serine/Threonine Kinase, ERK1 enzyme inhibition (substrate: Myelin Basic Protein); design: species or system Escherichia coli; conditions: Not Active = under 50% inhibition at 10 µM
Sequence of Mitogen-activated protein kinase 3 (P27361 whole entry): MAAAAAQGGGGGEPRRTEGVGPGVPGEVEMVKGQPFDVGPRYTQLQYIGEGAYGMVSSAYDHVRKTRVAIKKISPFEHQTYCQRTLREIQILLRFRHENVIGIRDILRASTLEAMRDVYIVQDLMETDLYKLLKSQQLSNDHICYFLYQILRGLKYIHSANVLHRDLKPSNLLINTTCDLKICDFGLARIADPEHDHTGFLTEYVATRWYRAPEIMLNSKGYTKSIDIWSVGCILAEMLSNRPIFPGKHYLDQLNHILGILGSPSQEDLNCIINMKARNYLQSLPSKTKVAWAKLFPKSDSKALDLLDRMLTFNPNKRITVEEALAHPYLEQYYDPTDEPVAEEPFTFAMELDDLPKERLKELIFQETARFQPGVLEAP

| Compound | IC50 [1] | Ki [1] | IC50 [2] | IC50 [3] | Ki [3] | IC50 [4] | Ki [4] | IC50 [5] | Ki [5] | IC50 (D(1A) dopamine receptor) | IC50 [6] | IC50 ([4]; read-out: IC50) [nM] | Ki ([4]; read-out: Ki) [nM] | Ki [2] | Ki (D(1A) dopamine receptor) | Ki [6] |
| --- | --- | --- | --- | --- | --- | --- | --- | --- | --- | --- | --- | --- | --- | --- | --- | --- |
| CC(N)Cc1c[nH]c2ccc(OCc3cccs3)cc12 (centres undefined) [BW-723C86] | Not Active | Not Active | Not Active | Not Active | Not Active | Not Active | Not Active | Not Active | Not Active | Not Active | Not Active | – | – | – | – | – |
| C=C(Cl)Cl [1,1-DICHLOROETHENE] | Not Active | Not Active | Not Active | Not Active | Not Active | Not Active | Not Active | Not Active | Not Active | Not Active | Not Active | – | – | – | – | – |
| Nc1ccc(Cc2ccc(N)cc2)cc1 | Not Active | Not Active | Not Active | Not Active | Not Active | Not Active | Not Active | Not Active | Not Active | Not Active | Not Active | – | – | – | – | – |
| Nc1nc(N)c2nc(CNc3ccc(C(=O)N[C@@H](CCC(=O)O)C(=O)O)cc3)cnc2n1 [AMINOPTERIN] | Not Active | Not Active | Not Active | Not Active | Not Active | Not Active | Not Active | Not Active | Not Active | Not Active | Not Active | – | – | – | – | – |
| CCN(CCO)CCCC(C)Nc1ccnc2cc(Cl)ccc12 (centres undefined) [HYDROXYCHLOROQUINE] | Not Active | Not Active | Not Active | Not Active | Not Active | – | – | Not Active | Not Active | Not Active | Not Active | 479 | 319 | – | – | – |
| COPPER(II) OXIDE | Not Active | Not Active | Not Active | Not Active | Not Active | Not Active | Not Active | Not Active | Not Active | Not Active | Not Active | – | – | Not Active | Not Active | Not Active |
| CN(CCOc1ccc(C[C@H](Nc2ccccc2C(=O)c2ccccc2)C(=O)O)cc1)c1ccccn1 | Not Active | Not Active | Not Active | Not Active | Not Active | Not Active | Not Active | Not Active | Not Active | Not Active | Not Active | – | – | – | – | – |
| COc1cc([C@@H]2c3cc4c(cc3[C@H](O)[C@H]3COC(=O)[C@H]23)OCO4)cc(OC)c1OC [PODOFILOX] | Not Active | Not Active | Not Active | Not Active | Not Active | Not Active | Not Active | Not Active | Not Active | Not Active | Not Active | – | – | – | – | – |
| ClC1=C(Cl)[C@]2(Cl)[C@@H]3[C@@H]4C[C@@H]([C@H]5O[C@@H]45)[C@@H]3[C@@]1(Cl)C2(Cl)Cl [DIELDRIN] | Not Active | Not Active | Not Active | Not Active | Not Active | Not Active | Not Active | Not Active | Not Active | Not Active | Not Active | – | – | – | – | – |
| CCN1CCN(c2cc3c(cc2F)c(=O)c(C(=O)O)cn3C2CC2)CC1 [ENROFLOXACIN] | Not Active | Not Active | Not Active | Not Active | Not Active | Not Active | Not Active | Not Active | Not Active | Not Active | Not Active | – | – | – | – | – |
| C[C@H]1C[C@H]2[C@@H]3CCC4=CC(=O)C=C[C@]4(C)[C@@]3(F)[C@@H](O)C[C@]2(C)[C@@]1(O)C(=O)CO [BETAMETHASONE] | Not Active | Not Active | Not Active | Not Active | Not Active | Not Active | Not Active | Not Active | Not Active | Not Active | Not Active | – | – | – | – | – |
